Measurements: patent publication US9845292B2 (Max-Planck-Gesellschaft zur Förderung der Wissenschaften …, priority 2013, dated 2017)
pKi: −log10 of the molar value. Where two headings read alike, the source gives them in different places.

Experiments:
FKBP52 = target: T1, FKBP52 (Homo sapiens, UniProt Q02790); assay: Fluorescence polarization binding assay, FK1-domain of FKBP52WT with tracer F2 (selectivity FKBP51 vs. FKBP52); settings: selectivity factor over FKBP52
T1 construct: Purified FK1-domains of FKBP51WT (4.5 nM) with F4 (3 nM), FKBP52WT (400 nM) with F2 (20 nM); implied by Ni-NTA purification) (N); made in house; host or cells: E. coli BL21(DE3)pLysS
T1 sequence (Q02790 50-138 limits assumed): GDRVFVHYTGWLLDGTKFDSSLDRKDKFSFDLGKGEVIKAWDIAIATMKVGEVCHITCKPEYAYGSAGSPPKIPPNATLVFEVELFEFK
Protocol: (§1) The target protein was also diluted in this assay buffer at double the highest concentration required for the final sample. This protein stock was used for a 1:1 serial dilution.
(§2) The inventive compound was dissolved in DMSO to reach a 100-times concentrated stock solution. This was used for a 1:1 serial dilution in DMSO.
(§3) For FKBP12, −51, and −52 the binding assays were performed in duplicates in the plate format.
(§4) The competition curves were analyzed by using SigmaPlot9. Data were fitted to a four parameter logistic curve to deduce the IC50 values. […] A=(Amax−Amin)/[L]t×(([L]t×((2×((Klig+Kcomp+[L]t+[I]t−[R]t)^2−3×(Kcomp×([L]t−[R]t)+Klig×([I]t−[R]t)+Klig×Kcomp))^0.5×COS(ARCCOS((−2×(Klig+Kcomp+[L]t+[I]t−[R]t)^3+9×(Klig+Kcomp+[L]t+[I]t−[R]t)×(Kcomp×([L]t−[R]t)+Klig×([I]t−[R]t)+Klig×Kcomp)−27×(−1×Klig×Kcomp×[R]t))/(2×((((Klig+Kcomp+[L]t+[I]t−[R]t)^2−3×(Kcomp×([L]t−[R]t)+Klig×([I]t−[R]t)+Klig×Kcomp))^3)^0.5)))/3))−(Klig+Kcomp+[L]t+[I]t−[R]t)))/((3×Klig)+((2×((Klig+Kcomp+[L]t+[I]t−[R]t)^2−3×(Kcomp×([L]t−[R]t)+Klig×([I]t−[R]t)+Klig×Kcomp))^0.5×COS(ARCCOS((−2×(Klig+Kcomp+[L]t+[I]t−[R]t)^3+9×(Klig+Kcomp+[L]t+[I]t−[R]t)×(Kcomp×([L]t−[R]t)+Klig×([I]t−[R]t)+Klig×Kcomp)−27×(−1×Klig×Kcomp×[R]t))/(2×((((Klig+Kcomp+[L]t+[I]t−[R]t)^2−3×(Kcomp×([L]t−[R]t)+Klig×([I]t−[R]t)+Klig×Kcomp))^3)^0.5)))/3))−(Klig+Kcomp+[L]t+[I]t−[R]t))))+Amin
(§5) In this equation Klig and Kcomp stand for the Kd values of the used tracer or competing inhibitor, [I]t is referring to the total concentration of the titrated inhibitor.
The Selectivity of the Compounds was Classified by Ki(FKBP51)/Ki(FKBP52)
(§6) Inhibition constants were measured in a fluorescence polarization binding assay by titrating the compounds.

FKBP51 = target: T2, FKBP51 (Homo sapiens, UniProt Q13451); assay: Fluorescence polarization binding assay, FK1-domain of FKBP51WT with tracer F4; set-up: Purified FK1-domains of FKBP51WT (4.5 nM) with F4 (3 nM), FKBP52WT (400 nM) with F2 (20 nM); made in house; host or cells: E. coli BL21(DE3)pLysS; settings: read-out: Affinity(Ki) for FKBP51
T2 sequence (Q13451 42-130 limits assumed): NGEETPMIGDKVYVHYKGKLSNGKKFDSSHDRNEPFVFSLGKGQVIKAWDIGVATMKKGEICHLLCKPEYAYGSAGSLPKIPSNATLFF
Protocol: as §1, §2, §3, §4, §5, §6

[1] = FKBP52WT (400 nM) with F2 (20 nM), A series
[2] = FK1-domain of FKBP51WT (4.5 nM) with F4 (3 nM), A series

Structure (SMILES) | Ki(FKBP51)/Ki(FKBP52) (FKBP52; [1]) | pKi (FKBP51; [2]) | Ki(FKBP51)/Ki(FKBP52) (FKBP52; compounds B01-C25) | pKi (FKBP51; compounds B01-C25)
COc1ccc(CCC(OC(=O)[C@@H]2CCCCN2C(=O)[C@H](NC(=O)c2ccccc2)C2CCCCC2)c2cccc(OCC(=O)O)c2)cc1OC (stereo partly drawn) [Compound A23, 2-(3-(1-(((2S)-1-(2-benzamido-2-cyclohexylacetyl)piperidine-2-carbonyl)oxy)-3-(3,4-dimethoxyphenyl)propyl)phenoxy)acetic acid] | + (>5 +) | 4.30 to 5.00 |  | 
COc1ccc(CCC(OC(=O)[C@@H]2CCCCN2C(=O)C(NC(=O)c2ccccc2O)C2CCCCC2)c2cccc(OCC(=O)O)c2)cc1OC (stereo partly drawn) [Compound A24, 2-(3-(1-(((2S)-1-(2-cyclohexyl-2-(2-hydroxybenzamido)acetyl)piperidine-2-carbonyl)oxy)-3-(3,4-dimethoxyphenyl)propyl)phenoxy)acetic acid] | + (>5 +) | 4.30 to 5.00 |  | 
COc1ccc(CCC(OC(=O)[C@@H]2CCCCN2C(=O)C(NC(=O)c2ccccn2)C2CCCCC2)c2cccc(OCC(=O)O)c2)cc1OC (stereo partly drawn) [Compound A25, 2-(3-(1-(((2S)-1-(2-cyclohexyl-2-(picolinamido)acetyl)piperidine-2-carbonyl)oxy)-3-(3,4-dimethoxyphenyl)propyl)phenoxy) acetic acid] | + (>5 +) | 4.30 to 5.00 |  | 
COc1ccc(CCC(OC(=O)[C@@H]2CCCCN2C(=O)C(NC(=O)C2CCCCC2)C2CCCCC2)c2cccc(OCC(=O)O)c2)cc1OC (stereo partly drawn) [Compound A26, 2-(3-(1-(((2S)-1-(2-(cyclohexanecarboxamido)-2-cyclohexylacetyl)piperidine-2-carbonyl)oxy)-3-(3,4-dimethoxyphenyl)propyl)phenoxy)acetic acid] | + (>5 +) | 4.30 to 5.00 |  | 
COc1ccc(CCC(OC(=O)[C@@H]2CCCCN2C(=O)C(NC(=O)C2N=CN=N2)C2CCCCC2)c2cccc(OCC(=O)O)c2)cc1OC (stereo partly drawn) [Compound A27, 2-(3-(1-(((2S)-1-(2-cyclohexyl-2-(3H-1,2,4-triazole-3-carboxamido)acetyl)piperidine-2-carbonyl)oxy)-3-(3,4-dimethoxyphenyl)propyl)phenoxy)acetic acid] | + (>5 +) | 4.30 to 5.00 |  | 
COc1ccc(CCC(OC(=O)[C@@H]2CCCCN2C(=O)C(NC(=O)c2cc(Cl)cc(Cl)c2)C2CCCCC2)c2cccc(OCC(=O)O)c2)cc1OC (stereo partly drawn) [Compound A28, 2-(3-(1-(((2S)-1-(2-cyclohexyl-2-(3,5-dichlorobenzamido)acetyl)piperidine-2-carbonyl)oxy)-3-(3,4-dimethoxyphenyl)propyl)phenoxy)acetic acid] | + (>5 +) | 4.30 to 5.00 |  | 
COc1ccc(CC[C@@H](OC(=O)[C@@H]2CCCCN2C(=O)[C@H](c2cccc(F)c2)C2CCCCC2)c2cccc(OCC(=O)O)c2)cc1OC [Compound A36, 2-(3-((R)-1-(((S)-1-((S)-2-cyclohexyl-2-(3-fluorophenyl)acetyl)piperidine-2-carbonyl)oxy)-3-(3,4-dimethoxyphenyl)propyl)phenoxy)acetic acid] | +++ (>500 +++) | 5.00 to 6.00 |  | 
COc1cc([C@@H](C(=O)N2CCCC[C@H]2C(=O)N[C@@H](C)C(N)=O)C2CCCCC2)cc(OC)c1OC [Compound B01, (S)-N-((S)-1-amino-1-oxopropan-2-yl)-1-((S)-2-cyclohexyl-2-(3,4,5-trimethoxyphenyl)acetyl)piperidine-2-carboxamide] |  |  | ++ (>50 ++) | 5.00 to 6.00
COc1cc([C@@H](C(=O)N2CCCC[C@H]2C(=O)N[C@H](C)C(N)=O)C2CCCCC2)cc(OC)c1OC [Compound B02, (S)-N-((R)-1-amino-1-oxopropan-2-yl)-1-((S)-2-cyclohexyl-2-(3,4,5-trimethoxyphenyl)acetyl)piperidine-2-carboxamide] |  |  | ++ (>50 ++) | 5.00 to 6.00
COc1cc([C@@H](C(=O)N2CCCC[C@H]2C(=O)N[C@H](C(N)=O)C(C)C)C2CCCCC2)cc(OC)c1OC [Compound B03, (S)-N-((S)-1-amino-3-methyl-1-oxobutan-2-yl)-1-((S)-2-cyclohexyl-2-(3,4,5-trimethoxyphenyl)acetyl)piperidine-2-carboxamide] |  |  | + (>5 +) | 4.30 to 5.00
